Data on 1 compound can be found in PMC11725127 (Acta Pharmaceutica Sinica. B, 2024).

The IC50 is the concentration that gives 50% inhibition.

The target in test [1] is ubiquitin-specific protease 2 (USP2) (Homo sapiens, UniProt O75604, C284S). The experiment in a line: thermal stability shift. The test is classed as cell-based.
The target in test [2] is USP7 (Homo sapiens, UniProt Q93009). The experiment in a line: in vitro gel-based GST-UBA52 cleavage assay. Format: biochemical.
Test [3] deals with ubiquitin-specific protease 2 (USP2) (Homo sapiens, UniProt O75604). The experiment in a line: LC-MS/MS covalent adduct on recombinant USP2. The test is classed as biochemical.
Chain of ubiquitin-specific protease 2 (USP2) (Homo sapiens, UniProt O75604) (O75604 259-605): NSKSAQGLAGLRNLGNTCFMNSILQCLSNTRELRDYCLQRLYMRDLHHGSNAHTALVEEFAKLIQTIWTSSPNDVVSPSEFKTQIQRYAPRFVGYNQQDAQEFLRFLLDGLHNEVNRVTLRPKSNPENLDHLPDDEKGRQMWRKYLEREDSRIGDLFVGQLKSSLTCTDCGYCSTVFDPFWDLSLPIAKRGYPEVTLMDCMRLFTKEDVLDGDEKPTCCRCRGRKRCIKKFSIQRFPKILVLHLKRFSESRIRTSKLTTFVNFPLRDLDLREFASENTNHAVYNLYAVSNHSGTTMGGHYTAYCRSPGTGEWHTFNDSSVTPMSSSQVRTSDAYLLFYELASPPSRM

Chain of ubiquitin-specific protease 2 (USP2) (Homo sapiens, UniProt O75604, C284S) (O75604 whole entry C284S): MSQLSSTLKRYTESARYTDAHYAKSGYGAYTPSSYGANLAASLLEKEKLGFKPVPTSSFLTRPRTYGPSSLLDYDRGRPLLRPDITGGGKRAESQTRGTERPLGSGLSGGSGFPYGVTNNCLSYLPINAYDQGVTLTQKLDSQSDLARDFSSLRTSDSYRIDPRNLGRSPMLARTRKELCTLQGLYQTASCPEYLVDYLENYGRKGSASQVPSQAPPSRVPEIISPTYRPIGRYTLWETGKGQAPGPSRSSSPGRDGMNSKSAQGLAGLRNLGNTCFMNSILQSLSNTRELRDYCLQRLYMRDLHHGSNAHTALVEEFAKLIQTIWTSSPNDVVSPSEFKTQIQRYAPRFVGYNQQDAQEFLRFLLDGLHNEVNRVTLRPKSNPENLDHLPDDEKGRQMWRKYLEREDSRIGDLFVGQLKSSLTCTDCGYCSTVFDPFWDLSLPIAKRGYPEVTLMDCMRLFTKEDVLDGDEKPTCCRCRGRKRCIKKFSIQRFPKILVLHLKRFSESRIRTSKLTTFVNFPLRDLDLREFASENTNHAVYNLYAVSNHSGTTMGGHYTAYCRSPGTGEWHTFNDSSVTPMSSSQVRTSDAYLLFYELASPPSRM
Chain of USP7 (Q93009 whole entry): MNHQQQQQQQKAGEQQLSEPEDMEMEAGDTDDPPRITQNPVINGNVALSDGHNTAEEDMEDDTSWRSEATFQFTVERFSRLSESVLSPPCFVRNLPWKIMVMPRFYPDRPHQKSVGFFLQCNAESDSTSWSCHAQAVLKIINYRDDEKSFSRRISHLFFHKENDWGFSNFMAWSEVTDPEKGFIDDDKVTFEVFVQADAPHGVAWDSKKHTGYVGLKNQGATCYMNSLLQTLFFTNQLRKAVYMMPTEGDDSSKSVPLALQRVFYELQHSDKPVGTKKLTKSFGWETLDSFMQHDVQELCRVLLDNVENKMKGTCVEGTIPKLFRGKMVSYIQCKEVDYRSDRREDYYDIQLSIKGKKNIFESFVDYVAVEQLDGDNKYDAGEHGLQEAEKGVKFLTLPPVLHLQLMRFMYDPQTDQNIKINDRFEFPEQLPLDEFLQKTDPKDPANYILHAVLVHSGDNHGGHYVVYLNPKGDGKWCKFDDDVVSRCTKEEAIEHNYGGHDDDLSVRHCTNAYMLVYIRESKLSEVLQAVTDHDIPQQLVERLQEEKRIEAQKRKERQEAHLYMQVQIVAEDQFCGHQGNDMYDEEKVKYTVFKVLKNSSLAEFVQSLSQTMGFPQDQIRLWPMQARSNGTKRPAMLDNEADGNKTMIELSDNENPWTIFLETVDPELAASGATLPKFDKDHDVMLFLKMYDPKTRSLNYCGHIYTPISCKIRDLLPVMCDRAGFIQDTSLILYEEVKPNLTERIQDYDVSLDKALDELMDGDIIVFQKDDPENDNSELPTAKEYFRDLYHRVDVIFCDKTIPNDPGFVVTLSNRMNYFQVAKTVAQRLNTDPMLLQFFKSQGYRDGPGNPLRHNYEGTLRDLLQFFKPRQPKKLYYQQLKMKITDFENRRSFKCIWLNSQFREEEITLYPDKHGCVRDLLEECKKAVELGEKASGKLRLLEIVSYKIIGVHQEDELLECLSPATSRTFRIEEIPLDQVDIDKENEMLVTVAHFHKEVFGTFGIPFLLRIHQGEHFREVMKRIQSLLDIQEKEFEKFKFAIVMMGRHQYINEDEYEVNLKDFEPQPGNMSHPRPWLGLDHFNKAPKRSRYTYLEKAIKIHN

As for `CC(C)=CCC[C@]1(C)C=Cc2c(O)c3c(c(CC=C(C)C)c2O1)O[C@]12C(=C[C@@H]4C[C@H]1C(C)(C)O[C@@]2(C/C=C(/C)C(=O)O)C4=O)C3=O` [GA, gambogic acid], the “thermal stability shift (Fig. S15)” value in test [1] is reported as “the thermal stability of USP2^Cys284S could also be altered by GA”. The half-inhibitory concentration (IC50) stood at 17 µM in test [2] and 1.8 µM in test [3].
